# System: participants with SSc-RP
# Experiment: Average duration of weekly RP attacks, all attacks (minutes)
# Format: in vivo, human
# Conditions: Excluding Outliers, ITT Population - Part A (Table B-6)
# Source text: The relevant metrics measured by this tool daily are: • Study medication • SSc-RP symptoms (Reporting an attack including duration of attack) • Severity of the attack considering all symptoms of the attack e.g. tingling, numbness, pain, color changes (VAS 0-10 cm scale) • Participant's location at the time of the attack (inside home/outside home) • Selecting symptoms experienced during the attack (tingling, numbness, pain, color changes, other) • Pain rating during the attack (11-point Likert scale) • The RCS based on how much difficulty participants had with Raynaud's today, how many attacks the participant had, and how long they lasted. Participants will also be asked to consider how much pain, numbness, or other symptoms the Raynaud's caused in fingers (including painful sores), and how much the Raynaud's alone affected the use of hands today (VAS 0-10 cm scale).
# The absolute change in average duration of weekly RP attacks from baseline to the end of each dosing period was and will be a secondary outcome variable. The sponsor-developed participant-informed diary was and will be used to record data. Average duration of weekly RP attacks is defined as the total duration of RP attacks divided by total number of RP attacks within the last 7 days of each dosing period. Total duration of RP attacks during the last 7 days of screening period divided by the total number of RP attacks will be used as baseline for the analysis of all periods. The variable will be calculated similar to frequency data as before.
# [1] = last 7 days of dosing period, listed as Cilnidipine 10 mg
# [2] = last 7 days of dosing period, listed as Cilnidipine 20 mg
# [3] = last 7 days of dosing period, listed as Pooled Cilnidipine
# [4] = last 7 days of screening period, listed as Cilnidipine 10 mg
# [5] = last 7 days of screening period, listed as Cilnidipine 20 mg
# [6] = last 7 days of screening period, listed as Pooled Cilnidipine
compound,measurement,setting,value
"COCCOC(=O)C1=C(C)NC(C)=C(C(=O)OC/C=C/c2ccccc2)C1c1cccc([N+](=O)[O-])c1 (centres unmarked) [Cilnidipine, 1,4-dihydro-2,6-dimethyl,4-(3-nitrophenyl)-3,5-pyridinedicarboxylic acid 2-methoxyethyl (2 E)-3-phenyl-2-propenyl ester]","Average Duration of weekly RP attacks (All Attacks), Max",[1],"31.5, 31.5 minutes"
same,"Average Duration of weekly RP attacks (All Attacks), Min",[1],"31.5, 31.5 minutes"
same,"Average duration of weekly RP attacks (All Attacks), Change from Baseline, Max",[1],"−8.5, −8.5 minutes"
same,"Average duration of weekly RP attacks (All Attacks), Change from Baseline, Min",[1],"−8.5, −8.5 minutes"
same,"Average duration of weekly RP attacks (All Attacks), Change from Baseline, Q1",[1],"−8.48, −8.48 minutes"
same,"Average duration of weekly RP attacks (All Attacks), Change from Baseline, Q3",[1],"−8.48, −8.48 minutes"
same,"Average duration of weekly RP attacks (All Attacks), Percent Change from Baseline, Max",[1],"−21.2, −21.2%"
same,Average Duration of weekly RP attacks (All Attacks),[2],3.0 min
same,"Average Duration of weekly RP attacks (All Attacks), Max",[2],30.5 min
same,"Average Duration of weekly RP attacks (All Attacks), Q1",[2],3.00 min
same,"Average duration of weekly RP attacks (All Attacks), Change from Baseline",[2],-7.6 min
same,"Average duration of weekly RP attacks (All Attacks), Change from Baseline, Max",[2],5.5 min
same,"Average duration of weekly RP attacks (All Attacks), Change from Baseline, Q3",[2],5.45 min
same,"Average duration of weekly RP attacks (All Attacks), Percent Change from Baseline, Max",[2],21.8%
same,"Average duration of weekly RP attacks (All Attacks), Percent Change from Baseline, Min",[2],−71.8%
same,"Average duration of weekly RP attacks (All Attacks), Percent Change from Baseline, Q1",[2],−71.76%
same,"Average duration of weekly RP attacks (All Attacks), Percent Change from Baseline, Q3",[2],21.82%
same,Average Duration of weekly RP attacks (All Attacks),[3],3.0 min
same,"Average Duration of weekly RP attacks (All Attacks), Max",[3],31.5 min
same,"Average Duration of weekly RP attacks (All Attacks), Q1",[3],3.00 min
same,"Average duration of weekly RP attacks (All Attacks), Change from Baseline",[3],-8.5 min
same,"Average duration of weekly RP attacks (All Attacks), Change from Baseline, Max",[3],5.5 min
same,"Average duration of weekly RP attacks (All Attacks), Change from Baseline, Q1",[3],-8.48 min
same,"Average duration of weekly RP attacks (All Attacks), Change from Baseline, Q3",[3],5.45 min
same,"Average duration of weekly RP attacks (All Attacks), Percent Change from Baseline, Max",[3],21.8%
same,"Average duration of weekly RP attacks (All Attacks), Percent Change from Baseline, Min",[3],−71.8%
same,"Average duration of weekly RP attacks (All Attacks), Percent Change from Baseline, Q1",[3],−71.76%
same,"Average duration of weekly RP attacks (All Attacks), Percent Change from Baseline, Q3",[3],21.82%
same,"Average duration of weekly RP attacks (All Attacks), Baseline, Max",[4],"40.0, 40.0 minutes"
same,"Average duration of weekly RP attacks (All Attacks), Baseline, Min",[4],"40.0, 40.0 minutes"
same,"Average duration of weekly RP attacks (All Attacks), Baseline, Q1",[4],"40.00, 40.00 minutes"
same,"Average duration of weekly RP attacks (All Attacks), Baseline, Q3",[4],"40.00, 40.00 minutes"
same,"Average duration of weekly RP attacks (All Attacks), Baseline",[5],10.6 min
same,"Average duration of weekly RP attacks (All Attacks), Baseline, Max",[5],25.0 min
same,"Average duration of weekly RP attacks (All Attacks), Baseline, Q1",[5],10.63 min
same,"Average duration of weekly RP attacks (All Attacks), Baseline, Q3",[5],25.00 min
same,"Average duration of weekly RP attacks (All Attacks), Baseline",[6],10.6 min
same,"Average duration of weekly RP attacks (All Attacks), Baseline, Max",[6],40.0 min
same,"Average duration of weekly RP attacks (All Attacks), Baseline, Mean",[6],25.21 min
same,"Average duration of weekly RP attacks (All Attacks), Baseline, Median",[6],25.00 min
same,"Average duration of weekly RP attacks (All Attacks), Baseline, Q1",[6],10.63 min
